Values quoted from earlier work as cited in patent US7825135B2, “Heteroaryl piperidine glycine transporter inhibitors” (Merck Sharp & Dohme Limited, priority 2004, dated 2010).

Legend:
[1] = schizophrenia patients poorly responsive to antipsychotic drugs
NMDA receptor = conditions: rat; blockade of GlyT1
[2] = mice
[3] = high doses, oral, add-on to standard neuroleptic therapy

CNCC(=O)O [sarcosine]
effect on positive, negative and cognitive symptoms [1]: beneficial effect

CN(CCC(Oc1ccc(-c2ccccc2)cc1)c1ccc(F)cc1)CC(=O)O (stereo not shown) [NFPS]
effect on NMDA receptor activity and NMDA receptor-dependent long-term potentiation (NMDA receptor): potentiates NMDA receptor activity and NMDA receptor-dependent long-term potentiation
effect on pre-pulse inhibition (sensory gating) [2]: enhance pre-pulse inhibition

NCC(=O)O [glycine]
effect on symptoms of schizophrenia patients [3]: improvement of the symptoms
